In patent publication US20120309739A1, “AKT / PKB INHIBITORS” (ALMAC DISCOVERY LIMITED, priority 2009, published 2012):
Where a name gives a salt, the structure may show the parent alone.

What was measured:
Assay type in all cases: biochemical
AKT1 = biological target: T1, AKT1 (Homo sapiens, UniProt P31749); assay: AKT Kinase Assay (IMAP fluorescent polarisation) vs AKT1; details: activated AKT1, FAM Crosstide substrate
T1 construct: purchased SignalChem
Method in brief: (§1)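 Each activated AKT isoform, at a pre-determined linear-range concentration, was pre-incubated 45 min at room temperature with compound in a fourteen-point half-log series. ATP plus 5′FAM-Crosstide then reacted 1 h; IMAP binding reagent stopped it (1 h). Fluorescence polarisation (ex 485/em 528 nm) versus vehicle gave IC50 by non-linear regression.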

AKT2 = biological target: T2, AKT2 (Homo sapiens, UniProt P31751); assay: AKT Kinase Assay (IMAP fluorescent polarisation) vs AKT2; details: activated AKT2, FAM Crosstide substrate
T2 construct: purchased SignalChem
Method in brief: as §1

AKT3 = biological target: T3, AKT3 (Homo sapiens, UniProt Q9Y243); assay: AKT Kinase Assay (IMAP fluorescent polarisation) vs AKT3; details: activated AKT3, FAM Crosstide substrate
T3 construct: purchased SignalChem
Method in brief: as §1

T2 sequence (P31751 whole entry): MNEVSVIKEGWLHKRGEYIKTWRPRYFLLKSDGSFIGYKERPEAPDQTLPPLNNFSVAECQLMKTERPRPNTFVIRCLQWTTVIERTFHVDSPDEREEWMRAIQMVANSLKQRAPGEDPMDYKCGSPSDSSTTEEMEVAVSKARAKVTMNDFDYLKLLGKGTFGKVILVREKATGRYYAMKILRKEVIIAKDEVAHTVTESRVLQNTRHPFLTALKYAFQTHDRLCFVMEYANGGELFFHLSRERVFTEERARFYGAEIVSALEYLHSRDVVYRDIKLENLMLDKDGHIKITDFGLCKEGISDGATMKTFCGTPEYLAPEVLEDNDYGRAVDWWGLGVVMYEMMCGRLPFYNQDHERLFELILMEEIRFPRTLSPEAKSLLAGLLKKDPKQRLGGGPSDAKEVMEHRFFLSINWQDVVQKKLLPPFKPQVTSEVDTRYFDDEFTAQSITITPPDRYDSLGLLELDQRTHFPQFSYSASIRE
T1 sequence (P31749 whole entry): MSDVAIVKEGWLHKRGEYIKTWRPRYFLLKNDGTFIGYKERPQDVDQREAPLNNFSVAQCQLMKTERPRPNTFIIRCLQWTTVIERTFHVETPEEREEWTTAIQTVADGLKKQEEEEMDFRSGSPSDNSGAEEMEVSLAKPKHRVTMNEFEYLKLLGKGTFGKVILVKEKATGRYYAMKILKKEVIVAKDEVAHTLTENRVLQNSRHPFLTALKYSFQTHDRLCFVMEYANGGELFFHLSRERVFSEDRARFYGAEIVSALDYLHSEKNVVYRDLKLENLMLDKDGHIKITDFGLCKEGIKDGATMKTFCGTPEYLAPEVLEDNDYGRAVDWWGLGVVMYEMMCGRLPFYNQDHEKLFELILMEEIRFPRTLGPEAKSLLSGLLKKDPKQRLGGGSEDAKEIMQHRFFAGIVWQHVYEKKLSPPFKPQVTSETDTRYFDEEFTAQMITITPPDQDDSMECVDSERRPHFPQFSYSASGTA
T3 sequence (Q9Y243 whole entry): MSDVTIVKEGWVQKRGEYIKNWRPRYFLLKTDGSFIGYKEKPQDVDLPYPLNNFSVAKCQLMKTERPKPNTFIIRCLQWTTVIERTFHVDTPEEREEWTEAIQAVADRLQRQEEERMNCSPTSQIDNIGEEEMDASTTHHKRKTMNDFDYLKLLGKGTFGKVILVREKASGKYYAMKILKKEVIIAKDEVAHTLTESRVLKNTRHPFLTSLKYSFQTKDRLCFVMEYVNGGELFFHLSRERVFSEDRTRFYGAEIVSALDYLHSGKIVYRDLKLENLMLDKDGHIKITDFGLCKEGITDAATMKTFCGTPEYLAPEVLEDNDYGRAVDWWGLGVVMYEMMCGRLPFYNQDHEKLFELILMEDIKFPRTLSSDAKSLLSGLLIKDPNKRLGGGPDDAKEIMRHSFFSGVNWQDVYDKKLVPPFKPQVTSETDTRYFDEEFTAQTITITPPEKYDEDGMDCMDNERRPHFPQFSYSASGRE

Row | SMILES | IC50 (AKT1) [nM] | IC50 (AKT2) [nM] | IC50 (AKT3) [nM]
1 | NC1(c2ccc(-c3oc4nc(NCCO)nc(C(F)(F)F)c4c3-c3ccccc3)cc2)CCC1 [Example 73, 2-((6-(4-(1-Aminocyclobutyl)phenyl)-5-phenyl-4-(trifluoromethyl)furo[2,3-d]pyrimidin-2-yl)amino)ethanol] | 100 to 1000 | 100 to 1000 | > 10000
2 | CSc1nc(C(F)(F)F)c2c(-c3ccccc3)c(-c3ccc(C4(N)CCC4)cc3)oc2n1 [Example 74, 1-(4-(2-(Methylthio)-5-phenyl-4-(trifluoromethyl)furo[2,3-d]pyrimidin-6-yl)phenyl)cyclobutanamine hydrochloride] | 1000 to 10000 | 1000 to 10000 | > 10000
3 | CSc1nc(I)c2c(-c3ccccc3)c(-c3ccc(C4(N)CCC4)cc3)oc2n1 [Example 75, 1-(4-(4-Iodo-2-(methylthio)-5-phenylfuro[2,3-d]pyrimidin-6-yl)phenyl)cyclobutanamine] | 1000 to 10000 | 1000 to 10000 | > 10000
4 | NC1(c2ccc(-c3oc4nc(NCCO)[nH]c(=O)c4c3-c3ccccc3)cc2)CCC1 [Example 76, 6-(4-(1-Aminocyclobutyl)phenyl)-2-((2-hydroxyethyl)amino)-5-phenylfuro[2,3-d]pyrimidin-4(3H)-one] | ≤ 100 | ≤ 100 | 1000 to 10000
5 | NC1(c2ccc(-c3oc4nc(NCCO)nc(NCCO)c4c3-c3ccccc3)cc2)CCC1 [Example 77, 2,2′-((6-(4-(1-Aminocyclobutyl)phenyl)-5-phenylfuro[2,3-d]pyrimidine-2,4-diyl)bis(azanediyl))diethanol] | 100 to 1000 | 100 to 1000 | > 10000
6 | COc1ncnc2oc(-c3ccc(C4(N)CCC4)cc3)c(-c3ccccc3)c12 [Example 78, 1-(4-(4-Methoxy-5-phenylfuro[2,3-d]pyrimidin-6-yl)phenyl)cyclobutanamine] | ≤ 100 | 100 to 1000 | > 10000
7 | CNc1nc(NCCO)nc2oc(-c3ccc(C4(N)CCC4)cc3)c(-c3ccccc3)c12 [Example 79, 2-(6-(4-(1-Aminocyclobutyl)phenyl)-4-(methylamino)-5-phenylfuro[2,3-d]pyrimidin-2-ylamino)ethanol, HCl] | 100 to 1000 | 1000 to 10000 | > 10000
8 | COc1ncc(Br)c2oc(-c3ccc(C4(N)CCC4)cc3)c(-c3ccccc3)c12 [Example 80, 1-(4-(7-Bromo-4-methoxy-3-phenylfuro[3,2-c]pyridin-2-yl)phenyl)cyclobutanamine] | 100 to 1000 | 1000 to 10000 | > 10000
9 | CCNc1nc(NCCO)nc2oc(-c3ccc(C4(N)CCC4)cc3)c(-c3ccccc3)c12 [Example 81, 2-(6-(4-(1-Aminocyclobutyl)phenyl)-4-(ethylamino)-5-phenylfuro[2,3-d]pyrimidin-2-ylamino)ethanol, HCl] | 100 to 1000 | 1000 to 10000 | > 10000
10 | Cn1c(N2CCOCC2)nc2oc(-c3ccc(C4(N)CCC4)cc3)c(-c3ccccc3)c2c1=O [Example 82, 6-(4-(1-Aminocyclobutyl)phenyl)-3-methyl-2-morpholino-5-phenylfuro[2,3-d]pyrimidin-4(3H)-one] | 100 to 1000 | 1000 to 10000 | 1000 to 10000
11 | COCCNc1nc2oc(-c3ccc(C4(N)CCC4)cc3)c(-c3ccccc3)c2c(=O)n1C [Example 83, 6-(4-(1-Aminocyclobutyl)phenyl)-2-(2-methoxyethylamino)-3-methyl-5-phenylfuro[2,3-d]pyrimidin-4(3H)-one] | 100 to 1000 | 1000 to 10000 | 1000 to 10000
12 | CN(CCO)c1nc2oc(-c3ccc(C4(N)CCC4)cc3)c(-c3ccccc3)c2c(=O)n1C [Example 84, 6-(4-(1-Aminocyclobutyl)phenyl)-2-((2-hydroxyethyl)(methyl)amino)-3-methyl-5-phenylfuro[2,3-d]pyrimidin-4(3H)-one] | 1000 to 10000 | 100 to 1000 | > 10000
13 | Cn1c(OCCO)nc2oc(-c3ccc(C4(N)CCC4)cc3)c(-c3ccccc3)c2c1=O [Example 85, 6-(4-(1-Aminocyclobutyl)phenyl)-2-(2-hydroxyethoxy)-3-methyl-5-phenylfuro[2,3-d]pyrimidin-4(3H)-one, HCl] | 100 to 1000 | ≤ 100 | 1000 to 10000
14 | C[C@H](O)CNc1nc2oc(-c3ccc(C4(N)CCC4)cc3)c(-c3ccccc3)c2c(=O)n1C [Example 86, (S)-6-(4-(1-Aminocyclobutyl)phenyl)-2-((2-hydroxypropyl)amino)-3-methyl-5-phenylfuro[2,3-d]pyrimidin-4(3H)-one] | 100 to 1000 | 100 to 1000 | 1000 to 10000

The next lines start with the values.

Row | IC50 (AKT1) [nM] | IC50 (AKT2) [nM] | IC50 (AKT3) [nM] | SMILES
15 | 100 to 1000 | 100 to 1000 | 1000 to 10000 | Cc1nc2oc(-c3ccc(C4(N)CCC4)cc3)c(-c3ccccc3)c2c(=O)n1C [Example 87, 6-(4-(1-Aminocyclobutyl)phenyl)-2,3-dimethyl-5-phenylfuro[2,3-d]pyrimidin-4(3H)-one]
16 | 100 to 1000 | ≤ 100 | 1000 to 10000 | CCNc1nc2oc(-c3ccc(C4(N)CCC4)cc3)c(-c3ccccc3)c2c(=O)n1C [Example 88, 6-(4-(1-Aminocyclobutyl)phenyl)-2-(ethylamino)-3-methyl-5-phenylfuro[2,3-d]pyrimidin-4(3H)-one, HCl]
17 | 100 to 1000 | 100 to 1000 | 1000 to 10000 | CNc1nc(OCCF)c2c(-c3ccccc3)c(-c3ccc(C4(N)CCC4)cc3)oc2n1 [Example 89, 6-(4-(1-Aminocyclobutyl)phenyl)-4-(2-fluoroethoxy)-N-methyl-5-phenylfuro[2,3-d]pyrimidin-2-amine, HCl]
18 | 100 to 1000 | 100 to 1000 | > 10000 | Cn1c(C2CC2)nc2oc(-c3ccc(C4(N)CCC4)cc3)c(-c3ccccc3)c2c1=O [Example 90, 6-(4-(1-Aminocyclobutyl)phenyl)-2-cyclopropyl-3-methyl-5-phenylfuro[2,3-d]pyrimidin-4(3H)-one]
19 | 1000 to 10000 | 1000 to 10000 | > 10000 | NC1(c2ccc(-c3oc4ccn(CCF)c(=O)c4c3-c3ccccc3)cc2)CCC1 [Example 91, 2-(4-(1-Aminocyclobutyl)phenyl)-5-(2-fluoroethyl)-3-phenylfuro[3,2-c]pyridin-4(5H)-one]
20 | 100 to 1000 | ≤ 100 | 1000 to 10000 | CCn1c(NC)nc2oc(-c3ccc(C4(N)CCC4)cc3)c(-c3ccccc3)c2c1=O [Example 92, 6-(4-(1-Aminocyclobutyl)phenyl)-3-ethyl-2-(methylamino)-5-phenylfuro[2,3-d]pyrimidin-4(3H)-one]
21 | 1000 to 10000 | ≤ 100 | 1000 to 10000 | CCn1c(NCCO)nc2oc(-c3ccc(C4(N)CCC4)cc3)c(-c3ccccc3)c2c1=O [Example 93, 6-(4-(1-Aminocyclobutyl)phenyl)-3-ethyl-2-((2-hydroxyethyl)amino)-5-phenylfuro[2,3-d]pyrimidin-4(3H)-one]
22 | 1000 to 10000 | ≤ 100 | 1000 to 10000 | CNc1nc2oc(-c3ccc(C4(N)CCC4)cc3)c(-c3ccccc3)c2c(=O)n1CC1CC1 [Example 94]
23 | 1000 to 10000 | ≤ 100 | 1000 to 10000 | NC1(c2ccc(-c3oc4nc(NCCO)n(CC5CC5)c(=O)c4c3-c3ccccc3)cc2)CCC1 [Example 95, 6-(4-(1-Aminocyclobutyl)phenyl)-3-(cyclopropylmethyl)-2-((2-hydroxyethyl)amino)-5-phenylfuro[2,3-d]pyrimidin-4(3H)-one]
